A short description of the data set: Permittivity (Q, e′, e″) by impedance analyzer, capacitance method. It counts as physicochemical. The note with it: 27 MHz. From the text: The property of permittivity is the measure of the resistance to forming an electric field. For purposes of comparing materials in air, it is often convenient to describe the permittivity of material in air where the permittivity is more specifically called “relative permittivity” or €r. This is a complex number represented by the following equation: €r=e′−je″ where e′ (the real portion of the complex number) is the dielectric constant (energy storage) and e″ (the imaginary portion of the complex number) is the dielectric loss or dissipation factor (energy dissipated as heat). The ratio of dielectric loss (e″) over the dielectric constant (e′) is called the loss tangent (tan δ) or power factor. […] The Q value is affected by physical and chemical properties such as density (porosity/particle size), moisture (conductivity), temperature, and molecular polarizability. The measurements obtained by this method can eliminate the need to measure and evaluate these properties independently.
Permittivity values (Q, e′, e″) were measured using an Agilent Impedance Analyzer at 27Mhz using a capacitance method wherein a fixture with a bottom fixed plate and top adjustable plate with a torque limiter which lightly compresses a cylindrical sample container to remove any air. During testing, the container is over filled with material and then carefully leveled off to avoid void spaces. A lid is placed on top to temporarily seal material within the container. Once a measurement is made, custom software calculates the difference between the sample and the configuration empty.

The structures appear in SMILES notation. Several values for one entry are separate records, joined by “and”; a condition that tells them apart may be missing. Identical values can stand only once.

Experimental findings from US10493026B2, “Process for making tablet using radiofrequency and lossy coated particles” (Johnson & Johnson Consumer Inc., priority 2017, dated 2019) are described below.

With `OC[C@@H](O)[C@@H](O[C@H]1O[C@H](CO)[C@@H](O)[C@H](O)[C@H]1O)[C@H](O)[C@@H](O)CO` [Maltitol, NF (SweetPearl P300DC), Maltitol], under “Table 1A”, the “Loss Tangent” value is 0.0035, the “e′” value is on record as 1.703 and the “e″” value was 0.006. Further, under “Table 1B”, the “Loss Tangent” value is on record as 0.0022, the “e′” value is 1.6214 and the “e″” value came out at 0.0035.

As for `OC[C@@H](O)[C@@H](O)[C@H](O)[C@H](O)CO` [Mannitol NF (Pearlitol 200SD), Mannitol], for the setting “Table 1A”, the “Loss Tangent” value worked out at 0.0028, the “e′” value amounted to 1.410 and the “e″” value came out at 0.004.

In the case of `OC[C@@H](O)[C@@H](O)[C@H](O)[C@@H](O)CO` [Sorbitol Powder, NF, Sorbitol], for the setting “Table 1A”, the “Loss Tangent” value was 0.0358 and 0.0462 and 0.0361; the “e′” value is 1.960 and 2.097 and 1.803; the “e″” value was 0.0701 and 0.0969 and 0.0650.
